Test results as given in patent publication US7087375B1, “Method for determining the mechanism of HIV RT inhibitors” (priority 2000, dated 2006).
pIC50: −log10 of the molar value.

How the values were obtained:
[1] = tested on: HXB2 site-directed mutant M41L, T69S-SG, T215Y; format: cell-based; conditions: virus M41L
[2] = tested on: HXB2 site-directed mutant M41L, T215Y; format: cell-based; conditions: virus M41L
[3] = tested on: HXB2 site-directed mutant M41L, T69S-AG, T215Y; format: cell-based; conditions: virus M41L
[4] = tested on: HXB2 site-directed mutant Q151M; format: cell-based; conditions: virus Q151M
wild type HXB2 virus = assay: HIV drug susceptibility assay (recombinant virus, MT-4 cells); conditions: Human immunodeficiency virus 1, HXB2, MT4, read-out: mean IC50 for the wild type control virus
[5] = tested on: HXB2 site-directed mutant M41L, M184V, T215Y; format: cell-based; conditions: virus M41L
[6] = tested on: HXB2 site-directed mutant V75T; format: cell-based; conditions: virus V75T
[7] = tested on: HXB2 site-directed mutant T69S-AG; format: cell-based; conditions: virus T69S-AG
[8] = tested on: HXB2 site-directed mutant M41L, D67N, K70R, M184V, T215Y; format: cell-based; conditions: virus M41L
[9] = tested on: HXB2 site-directed mutant M41L, T69S-SS, T215Y; format: cell-based; conditions: virus M41L
[10] = tested on: HXB2 site-directed mutant T69S-SS; format: cell-based; conditions: virus T69S-SS
[11] = tested on: HXB2 site-directed mutant T69S-SG; format: cell-based; conditions: virus T69S-SG
[12] = tested on: HXB2 site-directed mutant D67N, K70R; format: cell-based; conditions: virus D67N

Compound: Nc1nc(NC2CC2)c2ncn([C@H]3C=C[C@@H](CO)C3)c2n1 [Abacavir, abacavir]
- Fold resistance in IC50 relative to HXB2 [1]: 9.6 fold
- Fold resistance in IC50 relative to HXB2 [2]: 4.4 fold
- Fold resistance in IC50 relative to HXB2 [3]: 12.0 fold
- Fold resistance in IC50 relative to HXB2 [4]: 2.8 fold
- pIC50 (wild type HXB2 virus): 5.68
- Fold resistance in IC50 relative to HXB2 [5]: 7.1 fold
- Fold resistance in IC50 relative to HXB2 [6]: 1.8 fold
- Fold resistance in IC50 relative to HXB2 [7]: 7.0 fold
- Fold resistance in IC50 relative to HXB2 [8]: 4.1 fold
- Fold resistance in IC50 relative to HXB2 [9]: 4.6 fold
- Fold resistance in IC50 relative to HXB2 [10]: 3.0 fold
- Fold resistance in IC50 relative to HXB2 [11]: 4.0 fold
- Fold resistance in IC50 relative to HXB2 [12]: 1.8 fold

Compound: O=c1[nH]cnc2c1ncn2[C@H]1CC[C@@H](CO)O1 [ddI, didanosine]
- Fold resistance in IC50 relative to HXB2 [1]: 5.0 fold
- Fold resistance in IC50 relative to HXB2 [2]: 0.9 fold
- Fold resistance in IC50 relative to HXB2 [3]: 6.5 fold
- Fold resistance in IC50 relative to HXB2 [4]: 3.5 fold
- pIC50 (wild type HXB2 virus): 5.80
- Fold resistance in IC50 relative to HXB2 [5]: 8.0 fold
- Fold resistance in IC50 relative to HXB2 [6]: 2.5 fold
- Fold resistance in IC50 relative to HXB2 [7]: 3.8 fold
- Fold resistance in IC50 relative to HXB2 [8]: 2.4 fold
- Fold resistance in IC50 relative to HXB2 [9]: 2.5 fold
- Fold resistance in IC50 relative to HXB2 [10]: 4.3 fold
- Fold resistance in IC50 relative to HXB2 [11]: 2.1 fold
- Fold resistance in IC50 relative to HXB2 [12]: 0.3 fold

Compound: Nc1ccn([C@@H]2CS[C@H](CO)O2)c(=O)n1 [3TC, lamivudine]
- Fold resistance in IC50 relative to HXB2 [1]: 11.3 fold
- Fold resistance in IC50 relative to HXB2 [2]: 1.0 fold
- Fold resistance in IC50 relative to HXB2 [3]: 6.1 fold
- Fold resistance in IC50 relative to HXB2 [4]: 2.0 fold
- pIC50 (wild type HXB2 virus): 6.22
- Fold resistance in IC50 relative to HXB2 [5]: >62 fold
- Fold resistance in IC50 relative to HXB2 [6]: 3.2 fold
- Fold resistance in IC50 relative to HXB2 [7]: 4.2 fold
- Fold resistance in IC50 relative to HXB2 [8]: >62 fold
- Fold resistance in IC50 relative to HXB2 [9]: 4.3 fold
- Fold resistance in IC50 relative to HXB2 [10]: 5.0 fold
- Fold resistance in IC50 relative to HXB2 [11]: 2.9 fold
- Fold resistance in IC50 relative to HXB2 [12]: 1.2 fold
